# Experimental data reported in PubChem BioAssay AID504685 (Sanford-Burnham Center for Chemical Genomics, 2011).
# Calls of active or inactive are those of the source. How the calls were made is not given here.
# Target: Bcl-2-related protein A1 (Mus musculus) (UniProt Q07440)
# Test: Bfl-1 counter-screen inhibitors, SAR follow-up, counter-screen for UBC13 polyubiquitination inhibitor project, biochemical, mouse Bfl-1 (AID 504685)
# Details: Bfl-1 counterscreen for UBC13 inhibitors
row,Compound,IC50
1,CC(=O)Nc1ccc(OCC(O)CN2CCN(CCN3C(=O)c4cccc5cccc(c45)C3=O)CC2)cc1 (stereo not drawn),> 100 µM (inactive)
2,O=C(CCCCn1c(=O)c2ccccc2n(Cc2ccccc2)c1=O)NC1CCN(Cc2ccccc2)CC1,> 100 µM (inactive)
3,COc1ccc(C)c2sc(N(CCCN(C)C)C(=O)c3ccc(S(=O)(=O)N(C)C)cc3)nc12,> 100 µM (inactive)
4,CN(C)CCCN(C(=O)c1ccc(S(=O)(=O)N2CCCCC2)cc1)c1nc2cc3c(cc2s1)OCO3,> 100 µM (inactive)
5,CCCOC(=O)c1ccc(NC(=O)CCCCCN2C(=O)c3ccccc3C2=O)cc1,> 100 µM (inactive)
6,Cc1ccc(-c2oc3ncnc(N)c3c2-c2ccc(C)cc2)cc1,> 100 µM (inactive)
7,O=C(CCCCCN1C(=O)c2ccccc2C1=O)NCc1ccco1,> 100 µM (inactive)
8,Cc1ccc(OCC(O)CN2CCN(CCN3C(=O)c4cccc5cccc(c45)C3=O)CC2)c(C)c1 (stereo not drawn),97 µM
9,O=C1c2cccc3cccc(c23)C(=O)N1CCN1CCN(CC(O)COc2ccccc2)CC1 (stereo not drawn),> 100 µM (inactive)
10,O=C1c2cccc3cccc(c23)C(=O)N1CCN1CCN(CC(O)COc2ccc3ccccc3c2)CC1 (stereo not drawn),> 100 µM (inactive)
11,O=C(CCCn1c(=O)c2ccccc2n(Cc2cccc(F)c2)c1=O)NC1CCN(Cc2ccccc2)CC1,> 100 µM (inactive)
12,COc1ccc(OC)c2sc(N(CCCN(C)C)C(=O)c3ccc(S(=O)(=O)N4CCc5ccccc5C4)cc3)nc12,12 µM
13,Cc1ccc(C)c(CN2CCC(CNC(=O)C3CCCN(c4ncnc5c4nc4n5CCCCC4)C3)CC2)c1 (stereo not drawn),> 100 µM (inactive)
14,COc1cccc(OCC(O)CN2CCN(CCN3C(=O)c4cccc5cccc(c45)C3=O)CC2)c1 (stereo not drawn),> 100 µM (inactive)
15,Cc1ccccc1OCC(O)CN1CCN(CCN2C(=O)c3cccc4cccc(c34)C2=O)CC1 (stereo not drawn),> 100 µM (inactive)
16,CNCc1cc(Br)c(OCC(=O)Nc2ccccc2OC)c(OC)c1,> 100 µM (inactive)
17,CCOC(=O)c1c(NC(=O)COc2ccccc2C#N)sc2c1CC(C)(C)NC2(C)C,> 100 µM (inactive)
18,Cc1nc2ccccc2c(=O)n1NC(=O)c1ccc(OC(F)F)cc1,> 100 µM (inactive)
19,O=C(CCCCCN1C(=O)c2ccccc2C1=O)N1CCN(c2ccc([N+](=O)[O-])cc2)CC1,> 100 µM (inactive)
20,C=CCc1ccccc1OCC(O)CN1CCN(CCN2C(=O)c3cccc4cccc(c34)C2=O)CC1 (stereo not drawn),> 100 µM (inactive)
21,CN1CCN(CCCNC(=O)c2ccc(/C=C3\Oc4ccccc4N(Cc4ccc(Cl)cc4)C3=O)cc2)CC1,> 100 µM (inactive)
22,Cc1ccc(C)c(OCC(O)CN2CCN(CCN3C(=O)c4cccc5cccc(c45)C3=O)CC2)c1 (stereo not drawn),> 100 µM (inactive)
23,CCC1CCCCN1CCCNC(=O)C1CCN(c2ncnc3c2nc2n3CCCCC2)CC1 (stereo not drawn),> 100 µM (inactive)

row,Compound,IC50
1,CCc1ccc(OCC(O)CN2CCC(CN3C(=O)c4cccc5cccc(c45)C3=O)CC2)cc1 (stereo not drawn),> 100 µM (inactive)
2,CC1CC(C)CN(C(=O)C2CCN(c3ncnc4c3nc3n4CCCCC3)CC2)C1 (stereo not drawn),> 100 µM (inactive)
3,Cc1ccccc1NC(=S)NC(=O)CCCCCN1C(=O)c2ccccc2C1=O,> 100 µM (inactive)
4,CCCCN(CC)S(=O)(=O)c1ccc(C(=O)N(CCCN(C)C)c2nc3cc(C)cc(C)c3s2)cc1,> 100 µM (inactive)
5,CCOc1ccc2nc(N(CCCN(C)C)C(=O)c3ccc(C(=O)c4ccccc4)cc3)sc2c1,> 100 µM (inactive)
6,O=C1c2cccc3cccc(c23)C(=O)N1CC1CCN(CC(O)COCc2ccc3c(c2)OCO3)CC1 (stereo not drawn),96.2 µM
7,Cc1[nH]c2c(Cl)c(Cl)ccc2c1CCNC(=O)CCCCCN1C(=O)c2ccccc2C1=O,> 100 µM (inactive)
8,CN(C)CCCN(C(=O)c1ccc(S(=O)(=O)N2CCc3ccccc3C2)cc1)c1nc2ccc(F)cc2s1,60.7 µM
9,COc1ccc(NC(=O)CCCCCN2C(=O)c3cccc([N+](=O)[O-])c3C2=O)cc1,> 100 µM (inactive)
10,Cc1cc(NC(=O)Cn2c(=O)n(CCCCC(=O)NC3CCN(Cc4ccccc4)CC3)c(=O)c3ccccc32)n[nH]1,> 100 µM (inactive)
11,CC(NC(=O)CCCCCN1C(=O)c2cccc([N+](=O)[O-])c2C1=O)c1ccccc1 (stereo not drawn),> 100 µM (inactive)
12,O=C(NCC1CCN(Cc2ccc(F)cc2)CC1)C1CCCN(c2ncnc3c2nc2n3CCCCC2)C1 (stereo not drawn),> 100 µM (inactive)
13,COc1cccc(NC(=O)CCCCCN2C(=O)c3cccc([N+](=O)[O-])c3C2=O)c1,> 100 µM (inactive)
14,CN(CCNC(=O)C1CCN(c2ncnc3c2nc2n3CCCCC2)CC1)Cc1ccccc1,> 100 µM (inactive)
15,O=C(c1ccco1)N1CCN(C(=O)C2CCN(c3ncnc4c3nc3n4CCCCC3)CC2)CC1,> 100 µM (inactive)
16,O=C(NCCCN1CCCCC1)C1CCN(c2ncnc3c2nc2n3CCCCC2)CC1,> 100 µM (inactive)
17,CC(=O)c1ccccc1OCC(O)CN1CCN(CCN2C(=O)c3cccc4cccc(c34)C2=O)CC1 (stereo not drawn),93.1 µM
18,COCCOC(=O)c1ccc(NC(=O)CCCCCN2C(=O)c3ccccc3C2=O)cc1,> 100 µM (inactive)
19,COc1ccc(C(=O)Nn2c(C)nc3ccccc3c2=O)cc1,> 100 µM (inactive)
20,COc1cccc2sc(N(CCCN(C)C)C(=O)c3ccc(S(=O)(=O)N4CCc5ccccc5C4)cc3)nc12,24.1 µM
21,CCOc1ccc2nc(N(CCCN(C)C)C(=O)c3ccc(S(=O)(=O)N4CCc5ccccc5C4)cc3)sc2c1,> 100 µM (inactive)
22,O=C(CCCCCN1C(=O)c2cccc([N+](=O)[O-])c2C1=O)NCc1ccccc1,> 100 µM (inactive)
23,O=C1c2cccc3cccc(c23)N1Cc1ccc(F)cc1,> 100 µM (inactive)

row,Compound,IC50
1,CC1(C)Cc2c(sc(NC(=O)COc3ccc(Cl)cc3Cl)c2C(N)=O)C(C)(C)N1,> 100 µM (inactive)
2,O=C(CCCCCN1C(=O)c2cccc3cccc(c23)C1=O)NCCO,> 100 µM (inactive)
3,CC(C)(C)c1ccc(OCC(O)CN2CCN(CCN3C(=O)c4cccc5cccc(c45)C3=O)CC2)cc1 (stereo not drawn),> 100 µM (inactive)
4,O=C(C1COc2ccccc2O1)N1CCN(CCN2C(=O)c3cccc4cccc(c34)C2=O)CC1 (stereo not drawn),> 100 µM (inactive)
5,Cc1ccccc1CN1CCC(CNC(=O)C2CCCN(c3ncnc4c3nc3n4CCCCC3)C2)CC1 (stereo not drawn),> 100 µM (inactive)
6,Cc1cc(C)c2sc(N(CCCN(C)C)C(=O)c3ccc(S(=O)(=O)N(C)C4CCCCC4)cc3)nc2c1,> 100 µM (inactive)
7,O=C(CCCn1c(=O)c2ccccc2n(Cc2cccc([N+](=O)[O-])c2)c1=O)NC1CCN(Cc2ccccc2)CC1,> 100 µM (inactive)
8,Cc1cc(NS(=O)(=O)c2ccc(NC(=O)CCCCCN3C(=O)c4ccccc4C3=O)cc2)nc(C)n1,> 100 µM (inactive)
9,O=C1c2cccc3cccc(c23)C(=O)N1CCN1CCN(CC(O)COc2ccc(Cl)cc2)CC1 (stereo not drawn),> 100 µM (inactive)
10,COc1ccc2sc(N(CCCN(C)C)C(=O)c3ccc(S(=O)(=O)N(C)Cc4ccccc4)cc3)nc2c1,79.4 µM
11,Cc1cc(C)c2sc(N(CCCN(C)C)C(=O)c3ccc(S(=O)(=O)N(C)Cc4ccccc4)cc3)nc2c1,> 100 µM (inactive)
12,O=C(C1CCN(c2ncnc3c2nc2n3CCCCC2)CC1)N1CCN(c2ccccn2)CC1,> 100 µM (inactive)
13,CN(C)CCCN(C(=O)c1ccc(C(=O)c2ccccc2)cc1)c1nc2cc3c(cc2s1)OCO3,> 100 µM (inactive)
14,Cc1ccc2nc(N(CCCN(C)C)C(=O)c3ccc4c(c3)CCCC4)sc2c1,> 100 µM (inactive)
15,CCCN1CCN(C(=O)C2CCN(c3ncnc4c3nc3n4CCCCC3)CC2)CC1,> 100 µM (inactive)
16,CN(C)CCCN(C(=O)c1ccc(S(=O)(=O)N2CCCC2)cc1)c1nc2ccc(Br)cc2s1,> 100 µM (inactive)
17,CC(=O)c1ccc(OCC(O)CN2CCN(CCN3C(=O)c4cccc5cccc(c45)C3=O)CC2)cc1 (stereo not drawn),73.5 µM
18,O=C(CCCCn1c(=O)c2ccccc2n(Cc2ccccc2F)c1=O)NC1CCN(Cc2ccccc2)CC1,> 100 µM (inactive)
19,O=C(NCCCN1CCN(c2ccc(F)cc2)CC1)C1CCCN(c2ncnc3c2nc2n3CCCCC2)C1 (stereo not drawn),> 100 µM (inactive)
20,N#Cc1ccccc1Cn1c(=O)n(CCCC(=O)NC2CCN(Cc3ccccc3)CC2)c(=O)c2ccccc21,> 100 µM (inactive)
21,O=C1c2cccc3cccc(c23)C(=O)N1CCN1CCN(CC(O)COCc2ccc(Cl)cc2)CC1 (stereo not drawn),> 100 µM (inactive)
22,O=C(C1CCN(c2ncnc3c2nc2n3CCCCC2)CC1)N1CCC(Cc2ccccc2)CC1,> 100 µM (inactive)
